{"source": "patent US20090016990A1", "about": "“Antimicrobial Compositions” (priority 2007, published 2009)", "key": {"P aeruginosa 10145": {"test_system": "P aeruginosa 10145", "experiment": "Synergy of Zosteric Acid (ZA) with HOCL, MIC in M9GY", "format": "cell-based", "details": "M9GY"}, "[1]": {"test_system": "Pseudomonas aeruginosa ATCC 27853", "experiment": "MIC assay, planktonic growth, MBEC bioFILM PA panel", "details": "compound at 0.01%", "procedure": "The MBEC bioFILM PA panel is designed for use in determining antimicrobial agent susceptibility of both planktonic and biofilm Pseudomonas aeruginosa.\nFrom this test, the minimum antibiotic concentration—in the presence and absence of a compound of the present invention—that will inhibit bacterial growth in solution (“MIC Assay”) is determined. The minimum antibiotic concentration—in the presence and absence of a compound of the present invention—that will prevent attachment of bacteria to a test surface (“MBEC Assay”) is determined. Approximately 1,000,000-10,000,000 bacteria attach in the absence of antibiotics; lesser numbers attach in the presence of antibiotics.\nMBEC bioFilm PA panel—Panel wells are inoculated with planktonic Pseudomonas aeruginosa using a 95 peg inoculation lid. Panels and pegged lids are then incubated at 35° C. for 18 h. Planktonic susceptibility and resistance is determined by measuring inhibition and growth in the presence of antimicrobial agents after incubation. Biofilm susceptibility and resistance is determined by measuring inhibition and growth after peg sonication, biofilm bacteria recovery, then incubation for additional 18-24 h at 35° C."}, "[2]": {"test_system": "Pseudomonas aeruginosa ATCC 27853", "experiment": "MBEC assay, biofilm inhibition (prevention of biofilm formation), MBEC bioFILM PA panel", "format": "cell-based"}}, "data": [{"smiles": "OCl", "note": "[HOCl]", "values": [{"measurement": "MIC at 24 hours, Qhocl", "setting": "P aeruginosa 10145; HOCL alone", "value": 40, "unit": "ppm"}, {"measurement": "MIC at 48 hours, Qhocl", "setting": "P aeruginosa 10145; HOCL alone", "value": 40, "unit": "ppm"}, {"measurement": "MIC at 24 hours, Qhocl", "setting": "P aeruginosa 10145; HOCL with ZA (Qza) 0 ppm", "value": 50, "unit": "ppm"}, {"measurement": "MIC at 48 hours, Qhocl", "setting": "P aeruginosa 10145; HOCL with ZA (Qza) 0 ppm", "value": 60, "unit": "ppm"}, {"measurement": "SI-HOCL, 24 hours", "setting": "P aeruginosa 10145; HOCL with ZA (Qza) 0 ppm", "value": 1.25}, {"measurement": "SI-HOCL, 48 hours", "setting": "P aeruginosa 10145; HOCL with ZA (Qza) 0 ppm", "value": 1.5}, {"measurement": "MIC at 24 hours, Qhocl", "setting": "P aeruginosa 10145; HOCL with ZA (Qza) 250 ppm", "value": 30, "unit": "ppm"}, {"measurement": "MIC at 48 hours, Qhocl", "setting": "P aeruginosa 10145; HOCL with ZA (Qza) 250 ppm", "value": 30, "unit": "ppm"}, {"measurement": "SI-HOCL, 24 hours", "setting": "P aeruginosa 10145; HOCL with ZA (Qza) 250 ppm", "value": 0.775}, {"measurement": "SI-HOCL, 48 hours", "setting": "P aeruginosa 10145; HOCL with ZA (Qza) 250 ppm", "value": 0.775}, {"measurement": "MIC at 24 hours, Qhocl", "setting": "P aeruginosa 10145; HOCL with ZA (Qza) 500 ppm", "value": 50, "unit": "ppm"}, {"measurement": "MIC at 48 hours, Qhocl", "setting": "P aeruginosa 10145; HOCL with ZA (Qza) 500 ppm", "value": 50, "unit": "ppm"}, {"measurement": "SI-HOCL, 24 hours", "setting": "P aeruginosa 10145; HOCL with ZA (Qza) 500 ppm", "value": 1.3}, {"measurement": "SI-HOCL, 48 hours", "setting": "P aeruginosa 10145; HOCL with ZA (Qza) 500 ppm", "value": 1.3}, {"measurement": "MIC at 24 hours, Qhocl", "setting": "P aeruginosa 10145; HOCL with ZA (Qza) 1000 ppm", "value": 50, "unit": "ppm"}, {"measurement": "MIC at 48 hours, Qhocl", "setting": "P aeruginosa 10145; HOCL with ZA (Qza) 1000 ppm", "value": 50, "unit": "ppm"}, {"measurement": "SI-HOCL, 24 hours", "setting": "P aeruginosa 10145; HOCL with ZA (Qza) 1000 ppm", "value": 1.35}, {"measurement": "SI-HOCL, 48 hours", "setting": "P aeruginosa 10145; HOCL with ZA (Qza) 1000 ppm", "value": 1.35}, {"measurement": "MIC at 24 hours, Qhocl", "setting": "P aeruginosa 10145; HOCL with ZA (Qza) 2500 ppm", "value": 50, "unit": "ppm"}, {"measurement": "MIC at 48 hours, Qhocl", "setting": "P aeruginosa 10145; HOCL with ZA (Qza) 2500 ppm", "value": 50, "unit": "ppm"}, {"measurement": "SI-HOCL, 24 hours", "setting": "P aeruginosa 10145; HOCL with ZA (Qza) 2500 ppm", "value": 1.5}, {"measurement": "SI-HOCL, 48 hours", "setting": "P aeruginosa 10145; HOCL with ZA (Qza) 2500 ppm", "value": 1.5}, {"measurement": "MIC at 24 hours, Qhocl", "setting": "P aeruginosa 10145; HOCL with ZA (Qza) 5000 ppm", "value": 40, "unit": "ppm"}, {"measurement": "MIC at 48 hours, Qhocl", "setting": "P aeruginosa 10145; HOCL with ZA (Qza) 5000 ppm", "value": 40, "unit": "ppm"}, {"measurement": "SI-HOCL, 24 hours", "setting": "P aeruginosa 10145; HOCL with ZA (Qza) 5000 ppm", "value": 1.5}, {"measurement": "SI-HOCL, 48 hours", "setting": "P aeruginosa 10145; HOCL with ZA (Qza) 5000 ppm", "value": 1.5}, {"measurement": "MIC at 24 hours, Qhocl", "setting": "P aeruginosa 10145; HOCL with ZA (Qza) 7500 ppm", "value": 40, "unit": "ppm"}, {"measurement": "MIC at 48 hours, Qhocl", "setting": "P aeruginosa 10145; HOCL with ZA (Qza) 7500 ppm", "value": 50, "unit": "ppm"}, {"measurement": "SI-HOCL, 24 hours", "setting": "P aeruginosa 10145; HOCL with ZA (Qza) 7500 ppm", "value": 1.75}, {"measurement": "SI-HOCL, 48 hours", "setting": "P aeruginosa 10145; HOCL with ZA (Qza) 7500 ppm", "value": 2}, {"measurement": "MIC at 24 hours, Qhocl", "setting": "P aeruginosa 10145; HOCL with ZA (Qza) 10000 ppm", "value": 60, "unit": "ppm"}, {"measurement": "MIC at 48 hours, Qhocl", "setting": "P aeruginosa 10145; HOCL with ZA (Qza) 10000 ppm", "value": 60, "unit": "ppm"}, {"measurement": "SI-HOCL, 24 hours", "setting": "P aeruginosa 10145; HOCL with ZA (Qza) 10000 ppm", "value": 2.5}, {"measurement": "SI-HOCL, 48 hours", "setting": "P aeruginosa 10145; HOCL with ZA (Qza) 10000 ppm", "value": 2.5}]}, {"smiles": "CCC(C)(C)c1ccc(OS(=O)(=O)Cl)cc1", "note": "[compound 7]", "values": [{"measurement": "MIC values for several antibiotics in the presence of the compound", "setting": "[1]", "value": "reduced"}, {"measurement": "number of the 47 antibiotics or antibiotic combinations enhanced in activity", "setting": "[2]; of 47", "value": 10}, {"measurement": "Bacterial attachment to the test surfaces in the presence of the compound", "setting": "[2]; with antibiotics", "value": "completely inhibited at lower concentrations of antibiotics"}]}]}
